Results reported in patent publication US20120322060A1, “DIAGNOSIS AND MONITORING TREATMENT OF PSYCHIATRIC DISEASES WITH SPADIN AND RELATED METHODS” (CENTRE NATIONAL DE LE RECHERCHE SCIENTIFIQUE - CNRS -, priority 2011, published 2012).
Read-outs that look alike come from different tables or passages of the source. No end group written: not given here.

Experiments:
TREK-1 [1] = target: T1, TREK-1 (Mus musculus, UniProt P97438); test: Whole-cell patch-clamp on cultured pyramidal neurons from hippocampus; type: cell-based; set-up: endogenous in cells; host or cells: primary hippocampal pyramidal neurons from newborn mice; conditions: 10 μM, K+ blockers, at -50 mV, 7 out of 70 neurons
T1 sequence (P97438 1-426): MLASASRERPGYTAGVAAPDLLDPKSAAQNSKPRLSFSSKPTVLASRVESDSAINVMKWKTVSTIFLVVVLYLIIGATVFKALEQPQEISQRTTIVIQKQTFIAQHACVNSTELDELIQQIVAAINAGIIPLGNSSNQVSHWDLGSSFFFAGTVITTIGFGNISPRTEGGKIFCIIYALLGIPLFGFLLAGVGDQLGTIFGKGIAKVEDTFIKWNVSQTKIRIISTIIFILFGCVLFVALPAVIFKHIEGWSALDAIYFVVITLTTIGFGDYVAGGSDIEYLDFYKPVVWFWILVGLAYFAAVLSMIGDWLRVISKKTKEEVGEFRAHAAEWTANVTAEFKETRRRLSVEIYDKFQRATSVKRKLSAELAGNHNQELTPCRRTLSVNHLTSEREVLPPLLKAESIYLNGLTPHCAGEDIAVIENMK
Procedure: A, Cultured pyramidal neuron from hippocampus, with on top, the patch-clamp pipette. Neurons were chosen according to their morphology. B, Current recorded in response to ramps of potential obtained in the various conditions indicated (aa: arachidonic acid: 10 μM, Spadin: 1[…]μM, Fluoxetine: 20 μM). Neurons were recorded in the whole-cell configuration of the patch-clamp technique. In voltage-clamp, ramps of potential from −90 mV to 70 mV were applied every 10 sec. The % variation of the current amplitude was always measured at −50 mV. The currents were recorded in response to such ramps in control conditions and in the presence of a cocktail of potassium blockers suitable to isolate the TREK currents (10 mM tetraethyl ammonium (TEA), 3 mM 4-aminopyridine (4-AP), 50 nM charybdotoxin, 10 μM glibenclamide, 100 nM apamin). […] The blocks were reversible. C, Time course of spadin and fluoxetine effects. Applications are indicated by the horizontal bars.
Cortical neurons were prepared from 14 old mouse embryos whereas hippocampal neurons were prepared from new born mice. Briefly, dissected brain areas were dissociated and neurons were plated on polylysine-treated 35 or 60 mm dishes and maintained in culture in Neurobasal medium supplemented with B27, Glutamax and antibiotics for 2 to 3 weeks before to be used for electrophsysiological or biochemical experiments.

TREK-1 [2] = target: T1, TREK-1; test: Whole-cell patch-clamp on CA3 pyramidal neurons in hippocampus brain slices; type: cell-based; set-up: a cellular network that endogenously expresses both TREK-1 and NTSR3/Sortilin; from tissue; host or cells: mouse hippocampal brain slices, CA3 pyramidal neurons; conditions: wild-type CA3 neurons, K+ blockers, 10 μM aa, n=12
mice [3] = test: Elevated plus-maze; type: in vivo, mouse; conditions: spadin i.p. 10^-5 M, diazepam i.p. 0.5 mg/kg
Description: Elevated plus-maze. The apparatus consisted of two open and two enclosed arms of the same size (45×5 cm) with walls 15 cm high. The arms, constructed of black acrylic, radiate from a common central platform (5×5 cm) to form a plus sign. Open arms were arranged opposite to one another, as were closed arms. The maze was elevated to a height of 45 cm above floor level. Each mouse was placed in the central platform facing one of the open arms. The number of entries into the open and closed arms and the time spent on the open and closed arms were recorded during a 5 min test period. Time spent in the unprotected open arms as well as the number of entries in open arms in relation to the total of arm entries are used as experimental indices of anxiety.

mice [4] = test: Light/dark exploration; type: in vivo, mouse; conditions: spadin i.p. 10^-5 M, diazepam i.p. 0.5 mg/kg
Procedure: The apparatus consisted of a cage (25×40×20 cm) divided into two compartments by a black partition containing a small opening that allows mouse to move from one compartment to the other. One compartment, comprising […] of the surface area, was made of white plastic and was brightly illuminated. The adjoining smaller compartment was black and dark. Mice were placed in the white compartment and allowed to move freely between the two chambers for 5 minutes. The number of transitions between the two compartments, time spent in the white chamber, and latency to the first transition were recorded. Mice tend to avoid the white compartment. Thus the measures of exploration in this area (time and entrances) were used as experimental indices of anxiety.

mice [5] = test: Staircase test; type: in vivo, mouse; conditions: spadin i.p. 10^-5 M, diazepam i.p. 0.5 mg/kg
Procedure: The apparatus comprised an enclosed staircase consisted of five identical steps (2.5 cm in height×11 cm in width×7.5 cm in length), each made of black plastic. The height of the walls was constant (12.5 cm above the stairs) along the entire length of the staircase. Each mouse was placed individually on the floor of the staircase with its back to the staircase. A step was considered climbed only if the mouse placed all four paws on it. Rearing was recorded when the mouse rose on its hind legs either on the step or against the wall. The number of steps ascended and the number of rearings made in a 3-min period were recorded. Results were expressed as ratio of rearing/step numbers.

NTSR3/Sortilin = target: T2, NTSR3/Sortilin (Homo sapiens, UniProt Q99523); conditions: cited from earlier work; for binding activity / affinity for NTSR3/Sortilin: structure-function studies [15]
T2 sequence (Q99523 78-831): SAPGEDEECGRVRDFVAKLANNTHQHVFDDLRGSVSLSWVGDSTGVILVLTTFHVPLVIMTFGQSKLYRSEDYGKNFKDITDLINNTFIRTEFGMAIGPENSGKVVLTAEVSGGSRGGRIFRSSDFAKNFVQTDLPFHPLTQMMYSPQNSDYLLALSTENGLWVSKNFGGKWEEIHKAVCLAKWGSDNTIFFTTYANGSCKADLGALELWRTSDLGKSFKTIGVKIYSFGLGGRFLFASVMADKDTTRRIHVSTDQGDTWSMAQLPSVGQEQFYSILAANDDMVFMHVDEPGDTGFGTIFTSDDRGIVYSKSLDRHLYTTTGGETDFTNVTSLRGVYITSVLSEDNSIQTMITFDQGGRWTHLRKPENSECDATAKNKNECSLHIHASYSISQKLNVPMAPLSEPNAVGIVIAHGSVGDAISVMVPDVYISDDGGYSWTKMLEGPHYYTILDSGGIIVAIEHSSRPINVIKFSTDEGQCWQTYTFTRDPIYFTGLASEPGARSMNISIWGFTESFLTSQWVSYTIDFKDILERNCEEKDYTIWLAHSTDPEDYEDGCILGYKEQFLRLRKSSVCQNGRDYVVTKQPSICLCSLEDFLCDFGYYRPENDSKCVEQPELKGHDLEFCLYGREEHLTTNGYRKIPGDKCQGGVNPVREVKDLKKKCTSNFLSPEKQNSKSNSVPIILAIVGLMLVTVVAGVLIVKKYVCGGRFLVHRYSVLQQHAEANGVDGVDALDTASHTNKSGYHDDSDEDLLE

[6] = target: TREK-1 channel (expressed by transfection in COS-7 cells); test: cell-based or functional assay
Sequence of TREK-1 channel (expressed by transfection in COS-7 cells) (O95069 whole entry): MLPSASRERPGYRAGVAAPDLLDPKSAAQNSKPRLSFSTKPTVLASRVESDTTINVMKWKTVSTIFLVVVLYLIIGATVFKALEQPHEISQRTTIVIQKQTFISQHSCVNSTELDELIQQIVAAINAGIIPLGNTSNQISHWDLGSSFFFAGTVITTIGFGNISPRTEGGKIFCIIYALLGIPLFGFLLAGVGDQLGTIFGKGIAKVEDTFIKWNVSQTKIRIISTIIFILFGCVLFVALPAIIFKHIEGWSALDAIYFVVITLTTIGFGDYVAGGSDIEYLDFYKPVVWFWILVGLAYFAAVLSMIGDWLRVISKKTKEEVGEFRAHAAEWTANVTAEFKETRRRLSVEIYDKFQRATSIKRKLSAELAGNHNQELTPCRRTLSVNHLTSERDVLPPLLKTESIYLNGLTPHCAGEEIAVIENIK

TREK-1 [7] = target: T1, TREK-1; test: Whole-cell patch-clamp on TREK-1 transfected COS-7 cells; type: cell-based; set-up: GFP; expressed in transfected cells; host or cells: COS-7 (DEAE-dextran transfection); conditions: 500 nM, 10 μM aa, at 0 mV, n=4
Procedure: All electrophysiological experiments were done on COS-7 cells seeded at a density of 20,000 cells/35-mm dish 24 h before transfection. Cells were transfected by the classical DEAE-dextran method with TREK-1-GFP plasmids (0.1 μg/μL). Cells were visualized 48-72 h after transfection using fluorescence.
The whole-cell patch-clamp technique was used to evaluate TREK-1 potassium channel current by using a RK 400 patch-clamp amplifier (Axon Instruments, U.S.A.), as previously described. Currents were lowpass filtered at 3 kHz, digitized at 10 kHz using a 12-bit analog-to-digital converter. […] The bath solution contained (in mM): 150 NaCl, 5 KCl, 3 MgCl2, 1 CaCl2, and 10 HEPES, adjusted to pH 7.4 with NaOH; the patch pipette solution contained (in mM): 155 KCl, 3 MgCl2, 5 EGTA, and 10 HEPES, adjusted to pH 7.2 with KOH. Cells were clamped at −80 mV and voltage changes were either applied by ramp (from −100 to 50 mV, 1 s in duration) or by step (from −100 to 40 mV, 1.5 s in duration). Cells were continuously superfused with a microperfusion system. The pipette capacitance was not subtracted from total membrane capacitance and there was no leak substraction. All experiments were done at room temperature (21° C. to 22° C.) and in the presence of a cocktail of potassium channel inhibitors (K^+ blockers: 10 mM tetraethyl ammonium (TEA), 3 mM 4-aminopyridine (4-AP), 50 nM charybdotoxin, 10 μM glibenclamide, 100 nM apamin).
Pclamp software was used to analyze currents recorded in the whole-cell mode measured at 0 mV. Results are expressed as means±SD. To obtain the IC50 value for dose-dependent inhibition, experimental data were fitted with a standard sigmoidal function.

[8] = target: NTSR3/Sortilin (endogenous, C13NJ microglial cell line); test: cell-based or functional assay
[9] = target: TREK-1 channel (expressed by transfection in COS-7 cells); test: competition with 0.2 nM 125I-spadin on TREK-1 transfected COS-7 cell homogenates, filtration

CCCCC/C=C\C/C=C\C/C=C\C/C=C\CCCC(=O)O [arachidonic acid, Arachidonic acid]
increase of remaining current (TREK-1 [1]): about 50% | increase of amplitude of the remaining current (TREK-1 [2]): 23.3+4.8%

CN1C(=O)CN=C(c2ccccc2)c2cc(Cl)ccc21 [diazepam, reference compound]
time spent in the open arms (mice [3]): significantly reduced the time spent into the aversive open arms | number of light/dark transitions (mice [4]): significantly induced an increase | rearing/step numbers ratio (mice [5]): decrease of the rearing/step numbers ratio

Gln^1-Arg^28: peptide Gln1-Arg28 of the NTSR3/Sortilin propeptide, from literature
binding activity / affinity for NTSR3/Sortilin (NTSR3/Sortilin): as efficient on the binding activity as the entire propeptide | binding activity / affinity for NTSR3/Sortilin (NTSR3/Sortilin; listed as Gln^1-Arg^16): very low

NTSR3/Sortilin (expressed by transfection in COS-7 cells) (from UniProt Q99523 78-831) (receptor)
expression of TREK-1 within the plasma membranes (cell surface biotinylation, Western blot) [6]: 6 fold | expression of TREK-1 within the plasma membranes (purified plasma membranes, Western blot) [6]: 3 fold

QDRLDAPPPPAAPLPRWSGPIGVSWGLRAAAAGGAFPRGGRWRR [propeptide, 44 residue N-terminal propeptide released from prosortilin by furin]
Kd (NTSR3/Sortilin; read-out: Kd for the mature receptor): ~5 nM | block of aa stimulated TREK-1 current (TREK-1 [7]): 41±5%

neurotensin (from UniProt P30990 151-163) (peptide)
C13NJ cell migration in wound-healing assay with 10 nM NT (% of migration with 10% FCS) [8]: 35.1%

APLPRWSGPIGVSWGLR (also: monoiodinated (125I) on Tyr0, an added N-terminal Tyr not in given chain) [125I-spadin]
share of cell-bound 125I-spadin resistant to the acid-NaCl wash (intracellular) on TREK-1 expressing COS-7 cells at 37° C. [6]: 80%

QDRLDAPPPPAAPLPR [N-terminal fragment Gln1-Arg16 of the full length propeptide]
affinity [9]: 1 µM
